Source: ChEMBL document CHEMBL1147303, “Antimicrobial tetraprenylphenols from Suillus granulatus” (1989)
In brackets after ≈: the same amount, converted by molar mass.

Legend:
Assay type in all cases: functional
Proteus mirabilis = assay: Antibacterial activity against Proteus mirabilis by serial broth dilution assay
Staphylococcus aureus = assay: Antibacterial activity against Staphylococcus aureus ATCC 25923 by serial broth dilution assay
Hafnia alvei = assay: Antibacterial activity against Hafnia alvei by serial broth dilution assay
Escherichia coli = assay: Antibacterial activity against Escherichia coli ATCC 25922 by serial broth dilution assay
Micrococcus luteus = assay: Antibacterial activity against Micrococcus luteus ATCC 4698 by paper disc-agar diffusion assay
Bacillus subtilis = assay: Antibacterial activity against Bacillus subtilis by serial broth dilution assay
Aeromonas hydrophila = assay: Antibacterial activity against Aeromonas hydrophila by serial broth dilution assay
Enterococcus faecalis = assay: Antibacterial activity against Streptococcus faecalis by serial broth dilution assay

Row | SMILES | MIC (Proteus mirabilis) | MIC (Staphylococcus aureus) | MIC (Hafnia alvei) | MIC (Escherichia coli) | MIC (Micrococcus luteus) | MIC (Bacillus subtilis) | MIC (Aeromonas hydrophila) | MIC (Enterococcus faecalis)
1 | CC(=O)Oc1c(O)ccc(O)c1C/C=C(\C)CC/C=C(\C)CC/C=C(\C)CCC=C(C)C | > 100 µg/mL | > 100 µg/mL | > 100 µg/mL | 50 µg/mL (≈ 113 µM) | 50 µg/mL (≈ 113 µM) | > 100 µg/mL | > 100 µg/mL | 100 µg/mL (≈ 227 µM)
2 | COc1ccc(O)c(O)c1C/C=C(\C)CC/C=C(\C)CC/C=C(\C)CCC=C(C)C | > 100 µg/mL | > 100 µg/mL | > 100 µg/mL | > 100 µg/mL | 100 µg/mL (≈ 242 µM) | > 100 µg/mL | > 100 µg/mL | > 100 µg/mL
3 | CC(C)=CCC/C(C)=C/CC/C(C)=C/CCC1(C)C=Cc2c(ccc(O)c2O)O1 (stereo not given) | > 100 µg/mL | > 100 µg/mL | > 100 µg/mL | > 100 µg/mL | > 100 µg/mL | > 100 µg/mL | > 100 µg/mL | > 100 µg/mL

Now from value to compound:

Row | MIC (Proteus mirabilis) | MIC (Staphylococcus aureus) | MIC (Hafnia alvei) | MIC (Escherichia coli) | MIC (Micrococcus luteus) | MIC (Bacillus subtilis) | MIC (Aeromonas hydrophila) | MIC (Enterococcus faecalis) | SMILES
4 | > 100 µg/mL | > 100 µg/mL | > 100 µg/mL | 1.56 µg/mL (≈ 3.78 µM) | 6.25 µg/mL (≈ 15.1 µM) | > 100 µg/mL | 0.78 µg/mL (≈ 1.89 µM) | > 100 µg/mL | COc1c(O)cc(O)cc1C/C=C(\C)CC/C=C(\C)CC/C=C(\C)CCC=C(C)C
5 | > 100 µg/mL | > 100 µg/mL | > 100 µg/mL | 6.25 µg/mL (≈ 14.2 µM) | 50 µg/mL (≈ 113 µM) | > 100 µg/mL | 12.5 µg/mL (≈ 28.4 µM) | > 100 µg/mL | CC(=O)Oc1c(O)cc(O)cc1C/C=C(\C)CC/C=C(\C)CC/C=C(\C)CCC=C(C)C
